Data published in PubChem BioAssay AID1259407 (Chemical Carcinogenesis Research Information System (CCRIS), 2018).
Calls of active or inactive are those of the source. The rule behind the calls is not given here.

Tested on: CCRIS mutagenicity, Ames/micronucleus/aberration tests
Experiment: CCRIS mutagenicity studies

Measured: mutagenic call

CCN(N=O)c1ccccc1
inactive: Test System: AMES SALMONELLA TYPHIMURIUM, Strain/Indicator: TA1537, Metabolic Activation: HAMSTER, LIVER, S-9, AROCLOR 1254, Method: PREINCUBATION inactive; negative | Test System: AMES SALMONELLA TYPHIMURIUM, Strain/Indicator: TA1537, Metabolic Activation: HAMSTER, LIVER, S-9, AROCLOR 1254, Method: STANDARD PLATE inactive; negative | Test System: AMES SALMONELLA TYPHIMURIUM, Strain/Indicator: TA1537, Metabolic Activation: HAMSTER, LIVER, S-9, Method: PREINCUBATION inactive; negative | Test System: AMES SALMONELLA TYPHIMURIUM, Strain/Indicator: TA1537, Metabolic Activation: HAMSTER, LIVER, S-9, Method: STANDARD PLATE inactive; negative | Test System: AMES SALMONELLA TYPHIMURIUM, Strain/Indicator: TA1537, Metabolic Activation: MOUSE, LIVER, S-9, AROCLOR 1254, Method: PREINCUBATION inactive; negative | Test System: AMES SALMONELLA TYPHIMURIUM, Strain/Indicator: TA1537, Metabolic Activation: MOUSE, LIVER, S-9, AROCLOR 1254, Method: STANDARD PLATE inactive; negative | Test System: AMES SALMONELLA TYPHIMURIUM, Strain/Indicator: TA1537, Metabolic Activation: MOUSE, LIVER, S-9, Method: PREINCUBATION inactive; negative | Test System: AMES SALMONELLA TYPHIMURIUM, Strain/Indicator: TA1537, Metabolic Activation: MOUSE, LIVER, S-9, Method: STANDARD PLATE inactive; negative | Test System: AMES SALMONELLA TYPHIMURIUM, Strain/Indicator: TA1537, Metabolic Activation: NONE, Method: PREINCUBATION inactive; negative | Test System: AMES SALMONELLA TYPHIMURIUM, Strain/Indicator: TA1537, Metabolic Activation: NONE, Method: STANDARD PLATE inactive; negative | Test System: AMES SALMONELLA TYPHIMURIUM, Strain/Indicator: TA1537, Metabolic Activation: RAT, LIVER, S-9, AROCLOR 1254, Method: PREINCUBATION inactive; negative | Test System: AMES SALMONELLA TYPHIMURIUM, Strain/Indicator: TA1537, Metabolic Activation: RAT, LIVER, S-9, AROCLOR 1254, Method: STANDARD PLATE inactive; negative | Test System: AMES SALMONELLA TYPHIMURIUM, Strain/Indicator: TA1537, Metabolic Activation: RAT, LIVER, S-9, Method: PREINCUBATION inactive; negative | Test System: AMES SALMONELLA TYPHIMURIUM, Strain/Indicator: TA1537, Metabolic Activation: RAT, LIVER, S-9, Method: STANDARD PLATE inactive; negative | Test System: AMES SALMONELLA TYPHIMURIUM, Strain/Indicator: TA1538, Metabolic Activation: HAMSTER, LIVER, S-9, AROCLOR 1254, Method: PREINCUBATION inactive; negative | Test System: AMES SALMONELLA TYPHIMURIUM, Strain/Indicator: TA1538, Metabolic Activation: HAMSTER, LIVER, S-9, AROCLOR 1254, Method: STANDARD PLATE inactive; negative | Test System: AMES SALMONELLA TYPHIMURIUM, Strain/Indicator: TA1538, Metabolic Activation: HAMSTER, LIVER, S-9, Method: PREINCUBATION inactive; negative | Test System: AMES SALMONELLA TYPHIMURIUM, Strain/Indicator: TA1538, Metabolic Activation: HAMSTER, LIVER, S-9, Method: STANDARD PLATE inactive; negative | Test System: AMES SALMONELLA TYPHIMURIUM, Strain/Indicator: TA1538, Metabolic Activation: MOUSE, LIVER, S-9, AROCLOR 1254, Method: PREINCUBATION inactive; negative | Test System: AMES SALMONELLA TYPHIMURIUM, Strain/Indicator: TA1538, Metabolic Activation: MOUSE, LIVER, S-9, AROCLOR 1254, Method: STANDARD PLATE inactive; negative | Test System: AMES SALMONELLA TYPHIMURIUM, Strain/Indicator: TA1538, Metabolic Activation: MOUSE, LIVER, S-9, Method: PREINCUBATION inactive; negative | Test System: AMES SALMONELLA TYPHIMURIUM, Strain/Indicator: TA1538, Metabolic Activation: MOUSE, LIVER, S-9, Method: STANDARD PLATE inactive; negative | Test System: AMES SALMONELLA TYPHIMURIUM, Strain/Indicator: TA1538, Metabolic Activation: NONE, Method: PREINCUBATION inactive; negative | Test System: AMES SALMONELLA TYPHIMURIUM, Strain/Indicator: TA1538, Metabolic Activation: NONE, Method: STANDARD PLATE inactive; negative | Test System: AMES SALMONELLA TYPHIMURIUM, Strain/Indicator: TA1538, Metabolic Activation: RAT, LIVER, S-9, AROCLOR 1254, Method: PREINCUBATION inactive; negative | Test System: AMES SALMONELLA TYPHIMURIUM, Strain/Indicator: TA1538, Metabolic Activation: RAT, LIVER, S-9, AROCLOR 1254, Method: STANDARD PLATE inactive; negative | Test System: AMES SALMONELLA TYPHIMURIUM, Strain/Indicator: TA1538, Metabolic Activation: RAT, LIVER, S-9, Method: PREINCUBATION inactive; negative | Test System: AMES SALMONELLA TYPHIMURIUM, Strain/Indicator: TA1538, Metabolic Activation: RAT, LIVER, S-9, Method: STANDARD PLATE inactive; negative | Test System: E. COLI, Strain/Indicator: WP2 UVRA, Metabolic Activation: HAMSTER, LIVER, S-9, AROCLOR 1254, Method: PREINCUBATION inactive; negative | Test System: E. COLI, Strain/Indicator: WP2 UVRA, Metabolic Activation: HAMSTER, LIVER, S-9, AROCLOR 1254, Method: STANDARD PLATE inactive; negative | Test System: E. COLI, Strain/Indicator: WP2 UVRA, Metabolic Activation: HAMSTER, LIVER, S-9, Method: PREINCUBATION inactive; negative | Test System: E. COLI, Strain/Indicator: WP2 UVRA, Metabolic Activation: HAMSTER, LIVER, S-9, Method: STANDARD PLATE inactive; negative | Test System: E. COLI, Strain/Indicator: WP2 UVRA, Metabolic Activation: MOUSE, LIVER, S-9, AROCLOR 1254, Method: PREINCUBATION inactive; negative | Test System: E. COLI, Strain/Indicator: WP2 UVRA, Metabolic Activation: MOUSE, LIVER, S-9, AROCLOR 1254, Method: STANDARD PLATE inactive; negative | Test System: E. COLI, Strain/Indicator: WP2 UVRA, Metabolic Activation: MOUSE, LIVER, S-9, Method: PREINCUBATION inactive; negative | Test System: E. COLI, Strain/Indicator: WP2 UVRA, Metabolic Activation: MOUSE, LIVER, S-9, Method: STANDARD PLATE inactive; negative | Test System: E. COLI, Strain/Indicator: WP2 UVRA, Metabolic Activation: NONE, Method: PREINCUBATION inactive; negative | Test System: E. COLI, Strain/Indicator: WP2 UVRA, Metabolic Activation: NONE, Method: STANDARD PLATE inactive; negative | Test System: E. COLI, Strain/Indicator: WP2 UVRA, Metabolic Activation: RAT, LIVER, S-9, AROCLOR 1254, Method: PREINCUBATION inactive; negative | Test System: E. COLI, Strain/Indicator: WP2 UVRA, Metabolic Activation: RAT, LIVER, S-9, AROCLOR 1254, Method: STANDARD PLATE inactive; negative | Test System: E. COLI, Strain/Indicator: WP2 UVRA, Metabolic Activation: RAT, LIVER, S-9, Method: PREINCUBATION inactive; negative | Test System: E. COLI, Strain/Indicator: WP2 UVRA, Metabolic Activation: RAT, LIVER, S-9, Method: STANDARD PLATE inactive; negative
